Results: US7345070B2, “Peroxisome proliferator activated receptor agonists” (Eli Lilly and Company, priority 2000, dated 2008)

How the values were obtained:
HuapoAI transgenic mice = assay: Evaluation of triglyceride and cholesterol level in HuapoAI transgenic mice; format: in vivo; conditions: human apoAI transgenic mice; for change in vivo at 30 mg/kg / inhibition in vivo at 30 mg/kg: Mus musculus, 168 h, 30 mg/kg oral gavage daily for 7 days; for change in vivo at 30 mg/kg: FPLC area under the curve, over mice receiving vehicle, read-out: % HDLc Increase; for inhibition in vivo at 30 mg/kg: serum 3 h after dosing, read-out: Reduction in Triglyceride Serum Level
Experimental: After an acclimation period of 2 weeks, animals were individually identified by ear notches, weighed, and assigned to groups based on body weight. Beginning the following morning, mice were dosed daily by oral gavage for 7 days using a 20 gauge, 1½″ curved disposable feeding needle (Popper & Sons). […] Prior to termination on day 7, mice were weighed and dosed. Three hours after dosing, animals were anesthetized by inhalation of isoflurane (2-4%; Abbott Laboratories, Chicago, Ill.) and blood obtained via cardiac puncture (0.7-1.0 ml). Whole blood was transferred to serum separator tubes (Vacutainer SST), chilled on ice, and permitted to clot. Serum was obtained after centrifugation at 4° C. and frozen until analysis for triglycerides, total cholesterol, compound levels, and serum lipoprotein profile by fast protein liquid chromatography (FPLC) coupled to an inline detection system. After sacrifice by cervical dislocation, the liver, heart and epididymal fat pads were excised and weighed.
The absorbance of the dye produced is linearly related to the analyte in the sample. The assays were further modified in our laboratory for use in a 96 well format. […] An additional aliquot of sample, pipetted to a third well and diluted in 200 μl water, provided a blank for each specimen. […] Sample absorbances were compared to a standard curve (100-800, 10-500, and 100-400 mg/dl for glucose, triglycerides and total cholesterol, respectively). […] All samples from an experiment were assayed at the same time to minimize inter-assay variability.
Serum lipoproteins were separated and cholesterol quantitated with an in-line detection system. Sample was applied to a Superose® 6 HR 10/30 size exclusion column (Amersham Pharmacia Biotech) and eluted with phosphate buffered saline-EDTA at 0.5 ml/min. […] The change in voltage corresponding to change in cholesterol concentration was plotted vs time and the area under the curve corresponding to the elution of VLDL, LDL and HDL was calculated using Perkin Elmer Turbochrome software.

db/db mice = assay: Evaluation of glucose levels in db/db mice; format: in vivo; conditions: Mus musculus, 168 h, 30 mg/kg oral gavage daily for 7 days, 100% = glucose not different from lean values, read-out: Glucose Normalisation
Experimental: Five week old male diabetic (db/db) mice [C57BlKs/j-m+/+ Lepr(db), Jackson Laboratory, Bar Harbor, Me.] or lean littermates (db+) were housed 6 per cage (10″×20″×8″ with aspen chip bedding) with food (Purina 5015) and water available at all times. After an acclimation period of 2 weeks, animals were individually identified by ear notches, weighed, and bled via the tail vein for determination of initial glucose levels. Blood was collected (100 μl) from unfasted animals by wrapping each mouse in a towel, cutting the tip of the tail with a scalpel, and milking blood from the tail into a heparinized capillary tube (Fisher) balanced on the edge of the bench. Sample was discharged into a heparinized microtainer with gel separator (VWR) and retained on ice. Plasma was obtained after centrifugation at 4° C. and glucose measured immediately. Remaining plasma was frozen until the completion of the experiment, when glucose and triglycerides were assayed in all samples. Animals were grouped based on initial glucose levels and body weights. Beginning the following morning, mice were dosed daily by oral gavage for 7 days using a 20 gauge, 1½″ curved disposable feeding needle. Treatments were test compounds (30 mg/kg), a positive control agent (30 mg/kg) or vehicle [1% carboxymethylcellulose (w/v)/0.25% Tween80 (w/v); 0.3 ml/mouse]. On day 7, mice were weighed and bled (tail vein) 3 hours after dosing. Twenty-four hours after the 7th dose (i.e., day 8), animals were bled again (tail vein). Samples obtained from conscious animals on days 0, 7 and 8 were assayed for glucose. After the 24 hour bleed, animals were weighed and dosed for the final time. Three hours after dosing on day 8, animals were anesthetized by inhalation of isoflurane and blood obtained via cardiac puncture (0.5-0.7 ml). Whole blood was transferred to serum separator tubes, chilled on ice and permitted to clot. Serum was obtained after centrifugation at 4° C. and frozen until analysis for compound levels. After sacrifice by cervical dislocation, the liver, heart and epididymal fat pads were excised and weighed.
The animals dosed with vehicle had average triglycerides values of 170-230 mg/dl, which were reduced by the positive PPARγ control (70-120 mg/dl with a mean reduction of 50%). Male db/db mice were hyperglycemic (average glucose of 680-730 mg/dl on the 7th day of treatment), while lean animals had average glucose levels between 190-230 mg/dl.
Glucose was measured […] using commercially purchased reagents (Sigma #315-500). According to the manufacturers, the procedures were modified from published work (McGowan, M. W., Artiss, J. D., Strandbergh, D. R. & Zak, B. Clin Chem, 20:470-5 (1974) and Keston, A. Specific colorimetric enzymatic analytical reagents for glucose. Abstract of papers 129th Meeting ACS, 31C (1956).); and depend on the release of a mole of hydrogen peroxide for each mole of analyte, coupled with a color reaction first described by Trinder (Trinder, P. Determination of glucose in blood using glucose oxidase with an alternative oxygen acceptor. Ann Clin Biochem, 6:24 (1969)). The absorbance of the dye produced is linearly related to the analyte in the sample. The assays were further modified in our laboratory for use in a 96 well format. Standards (Sigma #339-11, Sigma #16-11, and Sigma #CC0534 for glucose, triglycerides and total cholesterol, respectively), quality control plasma (Sigma # A2034), and samples (2 or 5 μl/well) were measured in duplicate using 200 μl of reagent. An additional aliquot of sample, pipetted to a third well and diluted in 200 μl water, provided a blank for each specimen. Plates were incubated at room temperature (18, 15, and 10 minutes for glucose, triglycerides and total cholesterol, respectively) on a plate shaker (DPC Micormix 5) and absorbance read at 500 nm (glucose and total cholesterol) or 540 nm (triglycerides) on a plate reader (Wallac Victor 1420). […]

huPPARα = assay: Cotransfection assay in CV-1 cells, huPPARα; format: cell-based, human; conditions: GAL4 chimeric system, relative to PPARα agonist reference molecule
Experimental: DNA-dependent binding (ABCD binding) was carried out using SPA technology with PPAR receptors. Tritium-labeled PPARα and PPARγ agonists were used as radioligands for generating displacement curves and IC50 values with compounds of the invention. Cotransfection assays were carried out in CV-1 cells. The reporter plasmid contained an acylCoA oxidase (AOX) PPRE and TK promoter upstream of the luciferase reporter cDNA. Appropriate PPARs and RXRα were constitutively expressed using plasmids containing the CMV promoter. […] In order to eliminate such interference, a GAL4 chimeric system was used in which the DNA binding domain of the transfected PPAR was replaced by that of GAL4, and the GAL4 response element was utilized in place of the AOX PPRE. Cotransfection efficacy was determined relative to PPARα agonist and PPARγ agonist reference molecules. Efficacies were determined by computer fit to a concentration-response curve, or in some cases at a single high concentration of agonist (10 μM). For binding or cotransfection studies with receptors other than PPARs, similar assays were carried out using appropriate ligands, receptors, reporter constructs, etc., for that particular receptor.
These studies were carried out to evaluate the ability of compounds of the invention to bind to and/or activate various nuclear transcription factors, particularly huPPARα (“hu” indicates “human”) and huPPARγ. These studies provide in vitro data concerning efficacy and selectivity of compounds of the invention. Furthermore, binding and cotransfection data for compounds of the invention were compared with corresponding data for marketed compounds that act on either huPPARα or huPPARγ.

[1] = 100 mg/kg oral daily 7 days, vs vehicle

Compound	change in vivo at 30 mg/kg (HuapoAI transgenic mice) [%]	inhibition in vivo at 30 mg/kg (HuapoAI transgenic mice) [%]	inhibition in vivo at 30 mg/kg (db/db mice) [%]	also measured
Cc1oc(-c2cccs2)nc1CCOc1ccc(C[C@@](C)(Oc2ccccc2)C(=O)O)cc1 [Example 5, (R)-2-Methyl-3-{4-[2-(5-methyl-2-thiophen-2-yl-oxazol-4-yl)-ethoxy]-phenyl}-2-phenoxypropionic acid]	30	19.7	80	
Cc1oc(C2CCCCC2)nc1CCOc1ccc(CC(C)(Oc2ccccc2)C(=O)O)cc1 (stereo not drawn) [Example 7, 2-Methyl-3-(4-{2-[5-methyl-2-cyclohexyl-oxazol-4-yl]-ethoxy}-phenyl)-2-phenoxypropionic acid]	39	42.1	86	
Cc1oc(-c2ccccc2)nc1CCOc1ccc(C[C@@](C)(Oc2ccccc2)C(=O)O)cc1 [Example 2, (R)-3-{4-[2-(2-Phenyl-5-methyl-oxazol-4-yl)-ethoxy]-phenyl}-2-methyl-2-phenoxy-propionic acid]	25	-12.9	9	
Cc1c(C)c2c(c(C)c1O)CCC(C)(COc1ccc(CC3SC(=O)NC3=O)cc1)O2 (stereo not drawn) [Troglitazone, reference compound]				huPPARα CTF Efficacy (huPPARα): 0%
CC(C)OC(=O)C(C)(C)Oc1ccc(C(=O)c2ccc(Cl)cc2)cc1 [fenofibrate, reference compound]				HDLc peak area (HuapoAI transgenic mice; 100 mg/kg oral daily 7 days, FPLC of pooled sera, vehicle 47-62 v-sec): 68-96 v-sec; mean percent increase of HDLc (HuapoAI transgenic mice; 100 mg/kg oral daily 7 days, FPLC, vs vehicle): 48%; mean elevation of total serum cholesterol (HuapoAI transgenic mice; [1]): 41%; mean reduction of triglycerides (HuapoAI transgenic mice; [1]): 37%; average triglycerides values (HuapoAI transgenic mice; 100 mg/kg oral daily 7 days, vehicle 60-80 mg/dl): 33 to 58 mg/dL; average total serum cholesterol values (HuapoAI transgenic mice; 100 mg/kg oral daily 7 days, vehicle 140-180 mg/dl): 190 to 280 mg/dL
Cc1oc(-c2cccs2)nc1CCOc1ccc(CC(C)(Oc2ccccc2)C(=O)O)cc1 (racemic) [Example 4, rac-2-Methyl-3-{4-[2-(5-methyl-2-thiophen-2-yl-oxazol-4-yl)-ethoxy]-phenyl}-2-phenoxypropionic acid]	24	58.3	74	
Cc1oc(-c2ccccc2)nc1CCOc1ccc(CC(C)(Oc2ccccc2)C(=O)O)cc1 (racemic) [Example 1, rac-3-{4-[2-(2-Phenyl-5-methyl-oxazol-4-yl)-ethoxy]-phenyl}-2-methyl-2-phenoxy-propionic acid]	83	41.3	95	
Cc1oc(-c2ccccc2)nc1CCOc1ccc(C[C@](C)(Oc2ccccc2)C(=O)O)cc1 [Example 3, (S)-3-{4-[2-(2-Phenyl-5-methyl-oxazol-4-yl)-ethoxy]-phenyl}-2-methyl-2-phenoxy-propionic acid]	67		85	
Cc1oc(-c2cccs2)nc1CCOc1ccc(C[C@](C)(Oc2ccccc2)C(=O)O)cc1 [Example 6, (S)-2-Methyl-3-{4-[2-(5-methyl-2-thiophen-2-yl-oxazol-4-yl)-ethoxy]-phenyl}-2-phenoxypropionic acid]	85	38.5	86	
